These results are taken from patent publication US12509459B2, “Inhibitors of NLRP3 inflammasome” (BioAge Labs, Inc., priority 2024, dated 2025).

Where only a bound is given, the exact number is not on record here.

Chain of NLRP3 (Q96P20 whole entry): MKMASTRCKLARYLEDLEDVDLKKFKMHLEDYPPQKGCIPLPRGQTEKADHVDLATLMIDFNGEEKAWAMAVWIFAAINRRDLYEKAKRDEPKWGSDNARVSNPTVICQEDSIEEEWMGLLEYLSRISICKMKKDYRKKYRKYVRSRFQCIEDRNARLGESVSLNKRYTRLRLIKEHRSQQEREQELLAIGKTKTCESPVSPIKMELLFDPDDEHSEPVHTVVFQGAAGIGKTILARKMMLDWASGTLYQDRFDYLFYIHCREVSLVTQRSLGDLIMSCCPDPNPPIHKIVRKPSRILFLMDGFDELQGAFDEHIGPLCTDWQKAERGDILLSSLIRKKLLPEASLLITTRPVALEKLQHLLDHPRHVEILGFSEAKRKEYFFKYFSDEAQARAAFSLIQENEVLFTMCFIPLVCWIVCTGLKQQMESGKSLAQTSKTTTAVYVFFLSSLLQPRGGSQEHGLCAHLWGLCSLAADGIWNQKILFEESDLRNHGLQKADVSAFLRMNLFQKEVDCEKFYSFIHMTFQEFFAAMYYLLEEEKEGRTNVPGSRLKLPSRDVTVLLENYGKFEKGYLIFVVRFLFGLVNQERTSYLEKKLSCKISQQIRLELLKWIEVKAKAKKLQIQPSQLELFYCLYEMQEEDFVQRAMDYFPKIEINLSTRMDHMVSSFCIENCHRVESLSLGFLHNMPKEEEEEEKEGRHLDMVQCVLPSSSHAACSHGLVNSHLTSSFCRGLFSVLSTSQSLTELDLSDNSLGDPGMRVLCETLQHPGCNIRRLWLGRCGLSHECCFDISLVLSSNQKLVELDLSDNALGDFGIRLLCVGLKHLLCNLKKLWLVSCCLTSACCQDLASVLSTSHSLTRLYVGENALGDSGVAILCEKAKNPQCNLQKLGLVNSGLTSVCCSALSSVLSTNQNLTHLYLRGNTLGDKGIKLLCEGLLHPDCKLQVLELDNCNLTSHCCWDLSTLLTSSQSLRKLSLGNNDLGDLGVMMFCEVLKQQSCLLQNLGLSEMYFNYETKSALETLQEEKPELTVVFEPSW

This experiment has as its target NLRP3 (Homo sapiens, UniProt Q96P20). Put plainly: THP-1 cell-based NLRP3 activation assay. Also on record: endogenous in cells; host or cells: THP-1 cells (PMA-differentiated, LPS-primed, nigericin-stimulated). Conditions: PMA-differentiated THP-1 cells, LPS 100 ng/mL then 10 μM nigericin. The procedure: THP-1 cells are cultured in complete media (CM) until they reach logarithmic growth and achieve a viability >90%. CM is composed of RPMI-1640 (+Glutamax)/10% fetal bovine serum/55 μM β-mercaptoethanol/pen/strep. Cells are spun down and resuspended to 1,000,000 cells/mL in CM containing either 20 nM or 500 nM PMA. 150,000 cells (150 μL) are then added to each well of a 96-well TC plate and incubated for either 24 hr or 3 hr, respectively, in a standard cell culture incubator (37° C.; 5% CO2). After this incubation, the plate is tilted and media carefully removed. 200 μL of CM containing 100 ng/mL LPS is then added to the wells and the cells incubated an additional 3 hrs. The media is again removed and replaced with Opti-Mem medium containing pre-determined dilutions of test compounds in replicate wells. After a 30 min incubation, 10 μM nigericin (final concentration) in Opti-Mem medium with the corresponding concentration of compound is added to the wells for an additional 1 hr. Positive control wells contain 10 μM nigericin in Opti-Mem in the absence of test compound, while negative control wells contain Opti-Mem only. […] Once supernatants are removed, the relative viability of adherent cells in the 96-well TC plate are determined using a CellTiter-Glo® luminescent cell viability assay (Promega).
Turning to `[2H]C([2H])([2H])NCC[C@H](c1cncc2cn[nH]c12)N(C)C(=O)c1ccc(-c2cccc(F)c2)c(OCC)c1` [Compound 231], the IC50 – broadly, the point on the concentration scale where inhibition reaches its midpoint – was less than 100 nM.

For the compound `CCOc1cc(C(=O)N(Cc2cccc3cn[nH]c23)[C@H]2C[C@@H](N(C)C)C2)ccc1-c1cccc(F)c1` [Compound 251], the IC50 was less than 100 nM.

As to `CCOc1cc(C(=O)N(C)C(c2cccc3cn[nH]c23)C2CN(C)C2)ccc1-c1cccc(Cl)c1` (stereo not shown) [Compound 241], the half-maximal inhibitory concentration (IC50) is less than 100 nM.

The compound `CCOc1cc(C(=O)N(CCN2CCCCC2)Cc2cncc3cn[nH]c23)ccc1-c1ccccc1` [Compound 112] displayed a concentration for half-maximal inhibition (IC50) of less than 100 nM.

Take `Cc1ccc([C@H](CCN(C)C)N(C)C(=O)c2ccc(-c3cccc(F)c3)c(OC3CC3)c2)c2[nH]ncc12` [Compound 203]: the half-maximal inhibitory concentration (IC50) was less than 100 nM.

On to `CCOc1cc(C(=O)N(C)[C@H](CCN(C)C)c2cnc(CO)c3cn[nH]c23)ccc1-c1cccc(F)c1` [Compound 099], for which the IC50 is less than 100 nM.

`CCOc1cc(C(=O)N(Cc2ccc(C)c3cn[nH]c23)[C@H]2C[C@@H](NC)C2)ccc1-c1cccc(Cl)c1` [Compound 286] gave a half-inhibitory concentration (IC50) of less than 100 nM.

On to `CCOc1cc(C(=O)N(C)[C@H](CCN)c2cncc3cn[nH]c23)ccc1-c1ccccc1` [Compound 140], for which the IC50 is less than 100 nM.

For the compound `CCOc1cc(C(=O)N(CCN2CCC(F)(F)C2)Cc2cncc3cn[nH]c23)ccc1-c1cccc(F)c1` [Compound 115], the IC50 was less than 100 nM.

`CCOc1cc(C(=O)N(C)[C@H](CCN(C)CCO)c2cncc3cn[nH]c23)ccc1-c1cccc(F)c1` [Compound 262] registered an IC50 of less than 100 nM.

`CN(C(=O)c1ccc(-c2cccc(F)c2)c(OC2CC2)c1)[C@H](CC[N+](C)(C)[O-])c1cncc2cn[nH]c12` [Compound 165] gave an IC50 of less than 100 nM.

`CN(C)CC[C@H](c1cncc2cn[nH]c12)N(C)C(=O)c1ccc(-c2ccccc2)c(OC2CC2)c1` [Compound 073] registered an IC50 of less than 100 nM.

In turn, `CCOc1cc(C(=O)N(C)[C@H](c2c[nH]cn2)c2cncc3cn[nH]c23)ccc1-c1cccc(F)c1` [Compound 267] registered a half-inhibitory concentration (IC50) of 100 to 500 nM.

As to `CCOc1cc(C(=O)N(C)[C@H](CO)c2cnc(CC)c3cn[nH]c23)ccc1-c1cccc(F)c1` [Compound 033], the IC50 was less than 100 nM.

Consider `CCOc1cc(C(=O)N(C)[C@H](CN2CCC2)c2cncc3cn[nH]c23)ccc1-c1cccc(F)c1` [Compound 123], for which the IC50 lay in the range of 500 to 1000 nM.

Compound `CCOc1cc(C(=O)N(C)[C@H](CC[N+](C)([O-])CC)c2cncc3cn[nH]c23)ccc1-c1cccc(Cl)c1` (stereo partly shown) [Compound 254] gave an IC50 of less than 100 nM.

`CCOc1cc(C(=O)N(C)[C@H](CO)c2cncc3cn[nH]c23)ccc1-c1cccc(F)c1` [Compound 001]: the concentration for half-maximal inhibition (IC50) was less than 100 nM.

`CCOc1cc(C(=O)N(Cc2cncc3cn[nH]c23)C2CC(NC)C2)ccc1-c1cccc(F)c1` (stereo not shown) [Compound 235] returned an IC50 of 100 to 500 nM.

As for `CCOc1cc(C(=O)N(C)[C@H](CCN(C)C)c2cncc3cn[nH]c23)ccc1-c1cc(Cl)cc(Cl)c1` [Compound 090], the IC50 is less than 100 nM.

The compound `CCOc1cc(C(=O)N(C)[C@@H](c2cnc(C)c3cn[nH]c23)C2CN(C)C2)ccc1-c1cccc(F)c1` [Compound 071] yielded an IC50 of less than 100 nM.

On to `CCOc1cc(C(=O)N(C)[C@H](CC[N+]([O-])(CC)CC)c2cncc3cn[nH]c23)ccc1-c1cccc(Cl)c1` [Compound 255], for which the IC50 is less than 100 nM.

The compound `CCOc1cc(C(=O)N(Cc2cncc3cn[nH]c23)[C@H]2C[C@@H](N(C)C)C2)ccc1-c1cccc(Cl)c1` [Compound 253] gave an IC50 of less than 100 nM.

Consider `CCc1ncc([C@@H](CO)N(C)C(=O)c2ccc(-c3cccc(F)c3)c(OC3CC3)c2)c2[nH]ncc12` [Compound 034], for which the half-maximal inhibitory concentration (IC50) was more than 15000 nM.

As to `CCOc1cc(C(=O)N(Cc2cnc(C)c3cn[nH]c23)[C@H]2C[C@@H](NC)C2)ccc1-c1cccc(Cl)c1` [Compound 277], the IC50 was less than 100 nM.

For the compound `CCOc1cc(C(=O)N(CCNC)Cc2cncc3cn[nH]c23)ccc1-c1cccc(F)c1` [Compound 116], the IC50 was less than 100 nM.
